Measurements reported in patent US6706663B2, “Herbicidal 3-heterocyclic substituted benzisothiazole and benzisoxazole compounds” (Wyeth, priority 2000, dated 2004).

How the values were obtained:
[1] = test system: ABUTH (Abutilon theophrasti); assay: Postemergence herbicidal evaluation; format: in vivo, Medic.; conditions: postemergence
How it was run: (§1)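 Seedlings grown for about two weeks were sprayed postemergence and then kept under standard greenhouse care. Injury was rated visually 4–5 weeks after treatment on a 0–9 scale against untreated controls, and ratings from repeat tests were averaged.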

[2] = test system: IPOHE (Ipomoea hederacea); assay: Postemergence herbicidal evaluation; format: in vivo, (L.) Jacq.; conditions: postemergence
How it was run: as §1

SETVI (Setaria viridis) [3] = assay: Postemergence herbicidal evaluation; format: in vivo, (L.) Beau; conditions: postemergence
How it was run: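 Visual injury score (0-9: stand, vigor, malformation, size, chlorosis, overall appearance vs untreated control) taken four to five weeks post-spray. Two-week-old seedlings received about 0.0040 to 1.000 kg/ha active compound in acetone/water with 0.5% TWEEN 20.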

[4] = test system: CASOB (Cassia obtusifolia); assay: Preemergence herbicidal evaluation; format: in vivo, L.; conditions: rated 4-5 weeks after treatment
How it was run: (§2)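 Each species was sown separately in potting soil over roughly one inch of soil, and the surface sprayed with compound dissolved in aqueous acetone. Assessment used a 0–9 visual scale against a control after four to five weeks.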

[5] = test system: CHEAL (Chenopodium album); assay: Preemergence herbicidal evaluation; format: in vivo, L.; conditions: rated 4-5 weeks after treatment
How it was run: as §2

[6] = test system: AMBEL (Ambrosia artemisifolia); assay: Preemergence herbicidal evaluation; format: in vivo, L.; conditions: rated 4-5 weeks after treatment
How it was run: as §2

[7] = test system: IPOHE (Ipomoea hederacea); assay: Preemergence herbicidal evaluation; format: in vivo, (L.) Jacq.; conditions: rated 4-5 weeks after treatment
[8] = test system: ECHORC (Echinochloa oryzoides); assay: Flooded paddy, preemergence weed control; format: in vivo, Echinochloa oryzoides (Ard.) Fritsch.; conditions: rated 3-4 weeks after treatment, 0-9 rating scale
How it was run: (§3)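 Preemergence, flooded: propagules planted at 0.5 cm depth in silt loam, water level maintained at 1.5 to 3 cm over soil, containers kept on greenhouse benches. Activity scored 0-9 by eye relative to a control plant.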

ORYSAT (Rice, Tebonnet) [9] = assay: Preemergence herbicidal evaluation; format: in vivo, Oryza sativa, (L.) Tebonnet; conditions: rated 4-5 weeks after treatment
[10] = test system: SAGPY (Sagittaria pygmaea); assay: Flooded paddy, preemergence weed control; format: in vivo, L.; conditions: rated 3-4 weeks after treatment, 0-9 rating scale
How it was run: as §3

ORYSAT (Rice, Tebonnet) [11] = assay: Postemergence herbicidal evaluation; format: in vivo, Oryza sativa, (L.) Tebonnet; conditions: postemergence
How it was run: as §1

SETVI (Setaria viridis) [12] = assay: Preemergence herbicidal evaluation; format: in vivo, (L.) Beau; conditions: rated 4-5 weeks after treatment
How it was run: as §2

[13] = test system: ECHCG (Echinochloa crus-galli); assay: Preemergence herbicidal evaluation; format: in vivo, (L.) Beau; conditions: rated 4-5 weeks after treatment
How it was run: as §2

GALAP (Galium aparine) = assay: Postemergence herbicidal evaluation; format: in vivo; conditions: postemergence
How it was run: as §1

[14] = test system: GLXMAW (Soybean, Williams); assay: Postemergence herbicidal evaluation; format: in vivo, Glycine max, (L.) Merr. cv Williams; conditions: postemergence
How it was run: as §1

CYPIR (Cyperus iria) = assay: Flooded paddy, preemergence weed control; format: in vivo; conditions: rated 3-4 weeks after treatment, 0-9 rating scale
How it was run: as §3

[15] = test system: ECHCG (Echinochloa crus-galli); assay: Postemergence herbicidal evaluation; format: in vivo, (L.) Beau; conditions: postemergence
How it was run: as §1

[16] = test system: MOOVA (Monochoria vaginalis); assay: Flooded paddy, preemergence weed control; format: in vivo, Presl.; conditions: rated 3-4 weeks after treatment, 0-9 rating scale
How it was run: as §3

ZEAMX (Corn, Field) = assay: Postemergence herbicidal evaluation; format: in vivo, Zea mays, L.; conditions: postemergence
How it was run: as §1

ORYSAT (Rice, Tebonnet) [17] = assay: Flooded paddy, post-transplant rice tolerance; format: in vivo, Oryza sativa, (L.) Tebonnet; conditions: flooded paddy, post-transplant rice, rated 3-4 weeks after treatment, 0-9 rating scale
How it was run: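 Steps: transplant two ten-day-old seedlings into silt loam; flood to 1.5-3 cm above soil; apply herbicide post-transplant; maintain water on greenhouse benches; rate stand, vigor, malformation, size and chlorosis on a 0-9 visual scale versus control.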

Cn1c(C(F)(F)F)cc(=O)n(-c2ccc3snc(C4OCC5(CO4)CO5)c3c2)c1=O (stereo not drawn) [Compound 70, 1-methyl-3-(3-spiro[m-dioxane-5,2′-oxiran]-2-yl-1,2-benzisothiazol-5-yl)-6-(trifluoromethyl)uracil]
ABUTH herbicidal rating ([1]; rate 0.0320 kg/ha): 9.0 | ABUTH herbicidal rating ([1]; rate 0.0620 kg/ha): 9.0 | IPOHE herbicidal rating ([2]; rate 0.0320 kg/ha): 7.0 | IPOHE herbicidal rating ([2]; rate 0.0620 kg/ha): 9.0 | SETVI herbicidal rating (SETVI (Setaria viridis) [3]; rate 0.0320 kg/ha): 9.0 | SETVI herbicidal rating (SETVI (Setaria viridis) [3]; rate 0.0620 kg/ha): 9.0 | Preemergence herbicidal rating CASOB ([4]; Rate 0.0620 kg/ha): 2.0 | Preemergence herbicidal rating CASOB ([4]; Rate 0.1250 kg/ha): 2.0 | Preemergence herbicidal rating CHEAL ([5]; Rate 0.0620 kg/ha): 9.0 | Preemergence herbicidal rating CHEAL ([5]; Rate 0.1250 kg/ha): 9.0 | Preemergence herbicidal rating AMBEL ([6]; Rate 0.0620 kg/ha): 7.0 | Preemergence herbicidal rating AMBEL ([6]; Rate 0.1250 kg/ha): 9.0 | Preemergence herbicidal rating IPOHE ([7]; Rate 0.0620 kg/ha): 4.0 | Preemergence herbicidal rating IPOHE ([7]; Rate 0.1250 kg/ha): 7.0 | herbicidal rating, ECHORC ([8]; rate 0.0080 kg/ha): 0.0 | herbicidal rating, ECHORC ([8]; rate 0.0320 kg/ha): 0.0 | herbicidal rating, ECHORC ([8]; rate 0.1250 kg/ha): 0.0 | Preemergence herbicidal rating ORYSAT (ORYSAT (Rice, Tebonnet) [9]; Rate 0.0620 kg/ha): 3.0 | Preemergence herbicidal rating ORYSAT (ORYSAT (Rice, Tebonnet) [9]; Rate 0.1250 kg/ha): 6.0 | herbicidal rating, SAGPY ([10]; rate 0.0080 kg/ha): 0.0 | herbicidal rating, SAGPY ([10]; rate 0.0320 kg/ha): 0.0 | herbicidal rating, SAGPY ([10]; rate 0.1250 kg/ha): 0.0 | ORYSAT herbicidal rating (ORYSAT (Rice, Tebonnet) [11]; rate 0.0320 kg/ha): 5.0 | ORYSAT herbicidal rating (ORYSAT (Rice, Tebonnet) [11]; rate 0.0620 kg/ha): 6.0 | Preemergence herbicidal rating SETVI (SETVI (Setaria viridis) [12]; Rate 0.0620 kg/ha): 6.0 | Preemergence herbicidal rating SETVI (SETVI (Setaria viridis) [12]; Rate 0.1250 kg/ha): 9.0 | Preemergence herbicidal rating ECHCG ([13]; Rate 0.0620 kg/ha): 3.0 | Preemergence herbicidal rating ECHCG ([13]; Rate 0.1250 kg/ha): 7.0 | GALAP herbicidal rating (GALAP (Galium aparine); rate 0.0320 kg/ha): 8.0 | GALAP herbicidal rating (GALAP (Galium aparine); rate 0.0620 kg/ha): 9.0 | GLXMAW herbicidal rating ([14]; rate 0.0320 kg/ha): 7.0 | GLXMAW herbicidal rating ([14]; rate 0.0620 kg/ha): 8.5 | herbicidal rating, CYPIR (CYPIR (Cyperus iria); rate 0.0080 kg/ha): 0.0 | herbicidal rating, CYPIR (CYPIR (Cyperus iria); rate 0.0320 kg/ha): 0.0 | herbicidal rating, CYPIR (CYPIR (Cyperus iria); rate 0.1250 kg/ha): 0.0 | ECHCG herbicidal rating ([15]; rate 0.0320 kg/ha): 3.0 | ECHCG herbicidal rating ([15]; rate 0.0620 kg/ha): 4.0 | herbicidal rating, MOOVA ([16]; rate 0.0080 kg/ha): 0.0 | herbicidal rating, MOOVA ([16]; rate 0.0320 kg/ha): 0.0 | herbicidal rating, MOOVA ([16]; rate 0.1250 kg/ha): 0.0 | ZEAMX herbicidal rating (ZEAMX (Corn, Field); rate 0.0320 kg/ha): 6.5 | ZEAMX herbicidal rating (ZEAMX (Corn, Field); rate 0.0620 kg/ha): 7.0 | herbicidal rating, ORYSAT (rice tolerance) (ORYSAT (Rice, Tebonnet) [17]; rate 0.0080 kg/ha): 0.0 | herbicidal rating, ORYSAT (rice tolerance) (ORYSAT (Rice, Tebonnet) [17]; rate 0.0320 kg/ha): 0.0 | herbicidal rating, ORYSAT (rice tolerance) (ORYSAT (Rice, Tebonnet) [17]; rate 0.1250 kg/ha): 0.0
